From article PMC6801739, “Antitumor Activity of a Novel Tyrosine Kinase Inhibitor AIU2001 Due to Abrogation of the DNA Damage Repair in Non-Small Cell Lung Cancer Cells” (International Journal of Molecular Sciences, 2019)

What was measured:
[1] = target: T1, PDGFRα(D842V) (Homo sapiens, UniProt P16234, D842V); assay: Kinase profiling at 10 μM (Eurofins); type: biochemical; conditions: read-out: Inhibitory activity
T1 construct: purchased Eurofins Pharma Discovery (KinaseProfiler); IC50 values by Reaction Biology Corp

[2] = target: T2, ROS (Homo sapiens, UniProt P08922); assay: Kinase profiling at 10 μM (Eurofins); type: biochemical; conditions: read-out: Inhibitory activity
T2 construct: purchased Eurofins Pharma Discovery (KinaseProfiler); IC50 values by Reaction Biology Corp

[3] = tested on: A549 cells; assay: Immunoblot of cleaved caspase-3 and PARP-1; type: cell-based, human; conditions: 48 h
Experimental: (§1) Cell lysates were prepared by extracting proteins with TNN buffer (40 mM Tris-Cl pH 8.0, 0.2% NP-40, 120 mM NaCl) or radioimmunoprecipitation assay (RIPA) lysis buffer (Millipore, Billerica MA, USA) supplemented with a protease inhibitor cocktail (Thermo Fisher Scientific, Rockford, IL, USA). Equal amounts of proteins were separated using SDS-PAGE on 8–13% gels, and transferred to nitrocellulose membranes (Bio-Rad, Hercules, CA, USA). The membranes were blocked with 5% skim milk in Tris-buffered saline-Tween 20 (TBST) (150 mM NaCl, 10 mM Tris, 0.2% Tween20), followed by overnight incubation with primary antibodies at 4 °C. The blots were developed using peroxidase-conjugated secondary antibody and the immunoreactive proteins were visualized using enhanced chemiluminescence (ECL) reagents, according to the manufacturer’s recommendations (Amersham, GE Healthcare, Buckingamshire, UK). The protein bands were visualized using a digital imaging system (ImageQuant LAS 4000 mini; GE Healthcare, UK). The protein levels were analyzed using Image J software (National Institutes of Health, Bethesda, MD, USA). Experiments were repeated at least thrice.

[4] = tested on: H1299 cells; assay: Immunoblot of cleaved caspase-3 and PARP-1; type: cell-based, human; conditions: 48 h
Experimental: as §1

[5] = target: T3, FLT4 (Homo sapiens, UniProt P35916); assay: Kinase profiling at 10 μM (Eurofins); type: biochemical; conditions: read-out: Inhibitory activity
T3 construct: purchased Eurofins Pharma Discovery (KinaseProfiler); IC50 values by Reaction Biology Corp

[6] = target: FLT3(D835Y) (Homo sapiens, UniProt P36888, D835Y); assay: Kinase profiling at 10 μM (Eurofins); type: biochemical; parameters: purchased Eurofins Pharma Discovery (KinaseProfiler); IC50 values by Reaction Biology Corp; conditions: read-out: Inhibitory activity
[7] = target: T4, B-RAF (Homo sapiens, UniProt P15056); assay: Kinase profiling at 10 μM (Eurofins); type: biochemical; conditions: read-out: Inhibitory activity
T4 construct: purchased Eurofins Pharma Discovery (KinaseProfiler); IC50 values by Reaction Biology Corp

[8] = target: T5, MAPK2 (Homo sapiens, UniProt P28482); assay: Kinase profiling at 10 μM (Eurofins); type: biochemical; conditions: read-out: Inhibitory activity
T5 construct: purchased Eurofins Pharma Discovery (KinaseProfiler); IC50 values by Reaction Biology Corp

[9] = target: T6, HIPK2 (Homo sapiens, UniProt Q9H2X6); assay: Kinase profiling at 10 μM (Eurofins); type: biochemical; conditions: read-out: Inhibitory activity
T6 construct: purchased Eurofins Pharma Discovery (KinaseProfiler); IC50 values by Reaction Biology Corp

[10] = tested on: A549 cells; assay: Detection of intracellular ROS (CM-H2DCFDA, flow cytometry); type: cell-based, human; conditions: 5 μM, 24 h
Experimental: (§2) DMSO- or AIU2001-treated cells (5 × 10^5) were further treated with 10 μM CM-H2DCFH-DA for 30min and then washed with PBS before trypsinization. After detaching with trypsin, the cells were collected, washed, and resuspended in PBS. ROS inhibition was evaluated by treating cells with 5 mM NAC 2 h prior to AIU2001 treatment. Intracellular ROS levels were detected using a flow cytometer (CyFlow cube 6) at excitation/emission wavelengths of 488/525 nm.

[11] = tested on: H1299 cells; assay: as above; type: cell-based, human; conditions: 5 μM, 24 h
Experimental: as §2

[12] = tested on: A549 cells; assay: MTT cell viability assay, single drugs and combinations, CI scores; type: cell-based, human
Experimental: (§3) Cell viability was assessed using the MTT colorimetric assay. Cells (1 × 10^3 cells/well) were seeded into 96-well plates and treated with the various concentrations of each compound or combination of two compounds. After five days of treatment, 10 μL MTT (0.5 mg/mL) was added, and further incubated for 3 h. After removal of the supernatant, the resultant pellet was dissolved in DMSO. The absorbance of the resultant formazan was measured at 540 nm using a plate reader (Multiskan EX; ThermoLabsystems, Waltham, MA, USA).
(§4) CI scores were calculated using the CompuSyn software by Chou (CompuSyn Inc., Paramus, NJ) based on cell viability after treatment with single- and paired-drug concentrations. The CI equation for two drugs was used: CI=(D)A/(Dx)A+(D)B/(Dx)B where (Dx)A is the concentration of drug A alone that inhibits x%, (Dx)B is the concentration of drug B alone that inhibits x%, (D)A or (D)B is the portion of drug A or drug B in the combination (D)A + (D)B that inhibits x%.

[13] = tested on: H1299 cells; assay: as above; type: cell-based, human
Experimental: as §3, §4

[14] = target: T7, PKCα (Homo sapiens, UniProt P17252); assay: Kinase profiling at 10 μM (Eurofins); type: biochemical; conditions: read-out: Inhibitory activity
T7 construct: purchased Eurofins Pharma Discovery (KinaseProfiler); IC50 values by Reaction Biology Corp

[15] = tested on: A549 cells; assay: Annexin V/PI flow cytometric analysis of apoptosis; type: cell-based, human; conditions: 10 µM, 48 h
Experimental: (§5) Annexin V assays were performed according to the manufacturer’s protocol (BD Pharmingen, San Diego, CA, USA). Briefly, 10,000 cells were plated into 60-mm plates and treated with varying concentrations of AIU2001 for 48 h. The cells were harvested and incubated with 4 μL allophycocyanin (APC)-conjugated annexin V (20 μg/mL) and 4 μL PI (50 μg/mL) for 15 min. Fluorescence analyses were performed using flow cytometry (CyFlow Cube 6; Sysmexpartec, Goerlitz, Germany). Cells were classified as early apoptotic (annexin V-positive/PI-negative), late apoptotic/necrotic (annexin V-positive/PI-positive), necrotic/dead (annexin V-negative/PI-positive), and live (annexin V-negative/PI-negative). Flow cytometry data was analyzed using FlowJo software (TreeStar Inc., Ashland, OR, USA).

[16] = tested on: H1299 cells; assay: Annexin V/PI flow cytometric analysis of apoptosis; type: cell-based, human; conditions: 10 µM, 48 h
Experimental: as §5

[17] = target: T8, ROCK-I (Homo sapiens, UniProt Q13464); assay: Kinase profiling at 10 μM (Eurofins); type: biochemical; conditions: read-out: Inhibitory activity
T8 construct: purchased Eurofins Pharma Discovery (KinaseProfiler); IC50 values by Reaction Biology Corp

[18] = target: T9, DAPK1 (Homo sapiens, UniProt P53355); assay: Kinase profiling at 10 μM (Eurofins); type: biochemical; conditions: read-out: Inhibitory activity
T9 construct: purchased Eurofins Pharma Discovery (KinaseProfiler); IC50 values by Reaction Biology Corp

T2 sequence (P08922 28-2347): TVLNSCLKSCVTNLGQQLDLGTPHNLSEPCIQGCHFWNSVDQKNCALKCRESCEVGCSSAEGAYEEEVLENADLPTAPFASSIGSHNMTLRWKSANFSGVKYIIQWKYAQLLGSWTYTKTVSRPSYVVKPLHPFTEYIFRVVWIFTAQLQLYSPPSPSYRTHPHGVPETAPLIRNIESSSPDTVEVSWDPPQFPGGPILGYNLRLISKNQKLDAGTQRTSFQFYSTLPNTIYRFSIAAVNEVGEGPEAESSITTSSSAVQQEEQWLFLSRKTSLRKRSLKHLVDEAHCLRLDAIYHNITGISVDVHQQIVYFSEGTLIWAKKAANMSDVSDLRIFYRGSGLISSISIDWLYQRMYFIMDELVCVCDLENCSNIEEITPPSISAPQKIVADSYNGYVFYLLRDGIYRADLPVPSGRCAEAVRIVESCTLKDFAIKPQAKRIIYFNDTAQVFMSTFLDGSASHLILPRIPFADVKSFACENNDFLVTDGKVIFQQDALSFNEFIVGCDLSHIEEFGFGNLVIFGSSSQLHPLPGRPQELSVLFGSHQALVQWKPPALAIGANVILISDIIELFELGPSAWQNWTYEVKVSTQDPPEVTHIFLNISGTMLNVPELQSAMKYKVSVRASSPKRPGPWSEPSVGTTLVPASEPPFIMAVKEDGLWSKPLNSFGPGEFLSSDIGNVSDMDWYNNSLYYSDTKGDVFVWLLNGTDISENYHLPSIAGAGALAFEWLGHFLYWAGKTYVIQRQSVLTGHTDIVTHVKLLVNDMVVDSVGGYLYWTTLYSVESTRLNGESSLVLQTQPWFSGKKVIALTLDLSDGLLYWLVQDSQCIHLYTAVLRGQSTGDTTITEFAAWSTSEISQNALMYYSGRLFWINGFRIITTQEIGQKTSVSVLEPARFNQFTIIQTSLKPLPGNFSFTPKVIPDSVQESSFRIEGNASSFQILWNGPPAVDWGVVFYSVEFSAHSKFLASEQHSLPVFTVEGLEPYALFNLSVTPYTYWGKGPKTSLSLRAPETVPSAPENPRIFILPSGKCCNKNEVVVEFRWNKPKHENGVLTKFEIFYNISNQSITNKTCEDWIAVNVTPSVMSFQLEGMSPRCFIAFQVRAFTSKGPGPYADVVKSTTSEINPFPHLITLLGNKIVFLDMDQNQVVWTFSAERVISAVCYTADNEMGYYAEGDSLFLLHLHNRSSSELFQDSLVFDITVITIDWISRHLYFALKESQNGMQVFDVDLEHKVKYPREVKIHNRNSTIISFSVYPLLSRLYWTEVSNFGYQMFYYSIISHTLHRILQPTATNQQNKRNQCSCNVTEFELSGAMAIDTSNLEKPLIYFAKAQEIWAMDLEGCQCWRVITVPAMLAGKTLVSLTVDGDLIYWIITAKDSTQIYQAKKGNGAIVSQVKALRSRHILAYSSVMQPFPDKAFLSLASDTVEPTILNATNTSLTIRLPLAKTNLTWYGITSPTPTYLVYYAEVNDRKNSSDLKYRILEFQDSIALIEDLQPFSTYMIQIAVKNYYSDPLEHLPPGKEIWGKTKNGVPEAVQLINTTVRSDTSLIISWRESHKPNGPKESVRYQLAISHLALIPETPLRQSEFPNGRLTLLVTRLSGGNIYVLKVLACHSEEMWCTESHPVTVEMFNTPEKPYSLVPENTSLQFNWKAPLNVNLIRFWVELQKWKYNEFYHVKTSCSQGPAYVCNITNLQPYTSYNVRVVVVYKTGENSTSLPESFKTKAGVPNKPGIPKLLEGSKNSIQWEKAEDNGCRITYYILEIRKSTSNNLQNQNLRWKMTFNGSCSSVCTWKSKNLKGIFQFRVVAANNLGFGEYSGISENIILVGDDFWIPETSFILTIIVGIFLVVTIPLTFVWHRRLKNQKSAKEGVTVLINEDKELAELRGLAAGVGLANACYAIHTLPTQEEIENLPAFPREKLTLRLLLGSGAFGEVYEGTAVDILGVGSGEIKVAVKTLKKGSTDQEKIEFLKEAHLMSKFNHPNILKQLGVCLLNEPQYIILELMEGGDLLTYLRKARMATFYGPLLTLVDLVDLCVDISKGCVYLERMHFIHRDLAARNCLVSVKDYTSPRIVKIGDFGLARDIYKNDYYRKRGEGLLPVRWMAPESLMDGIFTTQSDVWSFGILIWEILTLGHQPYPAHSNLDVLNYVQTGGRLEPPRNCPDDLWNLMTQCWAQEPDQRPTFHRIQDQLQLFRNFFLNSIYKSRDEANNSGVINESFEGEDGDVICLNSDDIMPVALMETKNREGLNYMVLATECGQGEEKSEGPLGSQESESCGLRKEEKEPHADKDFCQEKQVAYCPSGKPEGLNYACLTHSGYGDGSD
T8 sequence (Q13464 whole entry): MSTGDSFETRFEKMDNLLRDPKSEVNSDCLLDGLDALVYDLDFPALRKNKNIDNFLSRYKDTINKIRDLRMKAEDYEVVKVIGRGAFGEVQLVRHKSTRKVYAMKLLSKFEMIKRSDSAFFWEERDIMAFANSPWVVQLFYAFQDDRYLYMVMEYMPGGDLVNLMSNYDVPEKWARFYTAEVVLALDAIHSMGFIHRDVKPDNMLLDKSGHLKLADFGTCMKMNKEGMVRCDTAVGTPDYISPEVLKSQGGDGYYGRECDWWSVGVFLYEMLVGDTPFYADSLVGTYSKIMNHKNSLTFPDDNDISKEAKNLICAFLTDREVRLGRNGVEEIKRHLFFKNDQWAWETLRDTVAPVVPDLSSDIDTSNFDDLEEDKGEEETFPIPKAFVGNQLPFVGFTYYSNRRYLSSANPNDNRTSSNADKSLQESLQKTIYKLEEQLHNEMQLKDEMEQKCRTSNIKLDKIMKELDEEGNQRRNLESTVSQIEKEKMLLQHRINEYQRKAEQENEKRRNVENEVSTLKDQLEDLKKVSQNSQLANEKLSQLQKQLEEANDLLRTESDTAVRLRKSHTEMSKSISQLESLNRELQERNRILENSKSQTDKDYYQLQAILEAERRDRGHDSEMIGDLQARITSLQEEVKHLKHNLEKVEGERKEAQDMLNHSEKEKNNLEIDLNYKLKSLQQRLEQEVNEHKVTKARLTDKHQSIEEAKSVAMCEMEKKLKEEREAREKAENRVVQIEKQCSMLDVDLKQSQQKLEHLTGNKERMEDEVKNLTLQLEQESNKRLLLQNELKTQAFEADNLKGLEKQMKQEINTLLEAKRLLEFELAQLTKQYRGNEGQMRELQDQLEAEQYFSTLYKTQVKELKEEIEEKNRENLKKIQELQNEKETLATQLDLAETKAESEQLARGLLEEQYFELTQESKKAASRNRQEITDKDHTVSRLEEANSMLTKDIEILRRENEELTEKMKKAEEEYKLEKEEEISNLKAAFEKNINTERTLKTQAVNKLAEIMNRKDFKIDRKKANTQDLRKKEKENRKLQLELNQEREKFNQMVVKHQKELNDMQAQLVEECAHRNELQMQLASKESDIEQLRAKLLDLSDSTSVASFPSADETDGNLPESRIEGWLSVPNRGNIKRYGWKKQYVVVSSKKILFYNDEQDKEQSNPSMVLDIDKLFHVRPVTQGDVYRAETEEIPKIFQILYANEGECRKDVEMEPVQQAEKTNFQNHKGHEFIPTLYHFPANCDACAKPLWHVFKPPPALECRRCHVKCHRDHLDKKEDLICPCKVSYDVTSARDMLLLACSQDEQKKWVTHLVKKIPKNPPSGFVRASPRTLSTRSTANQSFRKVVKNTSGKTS
T4 sequence (P15056 whole entry): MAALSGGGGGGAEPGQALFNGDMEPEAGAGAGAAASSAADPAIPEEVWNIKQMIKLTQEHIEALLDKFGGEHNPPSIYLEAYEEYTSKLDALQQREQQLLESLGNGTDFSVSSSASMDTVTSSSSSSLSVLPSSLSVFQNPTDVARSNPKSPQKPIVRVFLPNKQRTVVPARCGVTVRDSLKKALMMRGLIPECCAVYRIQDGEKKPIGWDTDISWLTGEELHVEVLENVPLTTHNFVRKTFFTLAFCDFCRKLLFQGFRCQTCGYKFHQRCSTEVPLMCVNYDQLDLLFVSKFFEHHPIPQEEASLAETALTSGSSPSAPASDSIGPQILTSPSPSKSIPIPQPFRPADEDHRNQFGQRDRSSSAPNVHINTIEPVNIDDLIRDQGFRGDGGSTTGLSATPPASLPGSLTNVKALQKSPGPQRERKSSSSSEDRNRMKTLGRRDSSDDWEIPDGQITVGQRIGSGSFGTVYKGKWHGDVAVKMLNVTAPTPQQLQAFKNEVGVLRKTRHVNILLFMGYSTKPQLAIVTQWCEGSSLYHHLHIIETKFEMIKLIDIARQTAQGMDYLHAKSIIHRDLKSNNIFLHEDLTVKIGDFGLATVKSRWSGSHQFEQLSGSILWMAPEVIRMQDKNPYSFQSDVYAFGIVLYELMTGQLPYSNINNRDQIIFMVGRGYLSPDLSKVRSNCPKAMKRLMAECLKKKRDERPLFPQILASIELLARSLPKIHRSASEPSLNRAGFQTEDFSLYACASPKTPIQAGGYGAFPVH
T5 sequence (P28482 whole entry): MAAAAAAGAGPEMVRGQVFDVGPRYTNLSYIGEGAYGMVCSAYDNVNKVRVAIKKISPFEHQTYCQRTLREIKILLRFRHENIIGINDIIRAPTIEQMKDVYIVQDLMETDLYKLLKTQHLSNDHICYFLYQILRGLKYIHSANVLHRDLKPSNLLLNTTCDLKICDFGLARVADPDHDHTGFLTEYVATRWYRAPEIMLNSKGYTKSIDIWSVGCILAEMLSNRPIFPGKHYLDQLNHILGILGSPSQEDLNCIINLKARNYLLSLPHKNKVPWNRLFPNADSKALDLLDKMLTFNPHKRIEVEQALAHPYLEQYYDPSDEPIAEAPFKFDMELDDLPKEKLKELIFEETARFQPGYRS

SMILES: Brc1ccc(-c2cnc(Nc3cccc4ccccc34)o2)cc1 [AIU2001, 5-(4-bromophenyl)-N-(naphthalen-1-yl) oxazol-2-amine]
- inhibition at 10 µM [1]: 23%
- inhibition at 10 µM [2]: 2%
- Cleavage of caspase-3 and PARP-1 [3]: increased cleavage
- Cleavage of caspase-3 and PARP-1 [4]: increased cleavage
- inhibition at 10 µM [5]: ≥ 75%
- inhibition at 10 µM [6]: ≥ 75%
- inhibition at 10 µM [7]: 0%
- inhibition at 10 µM [8]: 19%
- inhibition at 10 µM [9]: 0%
- ROS levels [10]: distinctly increased ROS levels
- ROS levels [11]: distinctly increased ROS levels
- viability at 0.16 µM ([12]; Homo sapiens, 120 h, Olaparib 0, AIU2001 0.16 μM, 5 days, panel A, read-out: Relative viability): 95.1%
- viability at 0.32 µM ([12]; Homo sapiens, 120 h, Olaparib 0, AIU2001 0.32 μM, 5 days, panel A, read-out: Relative viability): 95%
- viability at 0.63 µM ([12]; Homo sapiens, 120 h, Olaparib 0, AIU2001 0.63 μM, 5 days, panel A, read-out: Relative viability): 89%
- viability at 1.25 µM ([12]; Homo sapiens, 120 h, Olaparib 0, AIU2001 1.25 μM, 5 days, panel A, read-out: Relative viability): 86.5%
- viability at 2.5 µM ([12]; Homo sapiens, 120 h, Olaparib 0, AIU2001 2.50 μM, 5 days, panel A, read-out: Relative viability): 53.6%
- viability at 5 µM ([12]; Homo sapiens, 120 h, Olaparib 0, AIU2001 5.00 μM, 5 days, panel A, read-out: Relative viability): 31.6%
- viability at 10 µM ([12]; Homo sapiens, 120 h, Olaparib 0, AIU2001 10.00 μM, 5 days, panel A, read-out: Relative viability): 21.1%
- Growth inhibition ([12]; MTT, five days): significantly inhibited the growth
- viability at 0.16 µM ([13]; Homo sapiens, NCI-H1299, 120 h, Olaparib 0, AIU2001 0.16 μM, 5 days, panel A, read-out: Relative viability): 101%
- viability at 0.32 µM ([13]; Homo sapiens, NCI-H1299, 120 h, Olaparib 0, AIU2001 0.32 μM, 5 days, panel A, read-out: Relative viability): 93.7%
- viability at 0.63 µM ([13]; Homo sapiens, NCI-H1299, 120 h, Olaparib 0, AIU2001 0.63 μM, 5 days, panel A, read-out: Relative viability): 94.2%
- viability at 1.25 µM ([13]; Homo sapiens, NCI-H1299, 120 h, Olaparib 0, AIU2001 1.25 μM, 5 days, panel A, read-out: Relative viability): 90%
- viability at 2.5 µM ([13]; Homo sapiens, NCI-H1299, 120 h, Olaparib 0, AIU2001 2.50 μM, 5 days, panel A, read-out: Relative viability): 65.5%
- viability at 5 µM ([13]; Homo sapiens, NCI-H1299, 120 h, Olaparib 0, AIU2001 5.00 μM, 5 days, panel A, read-out: Relative viability): 26.2%
- viability at 10 µM ([13]; Homo sapiens, NCI-H1299, 120 h, Olaparib 0, AIU2001 10.00 μM, 5 days, panel A, read-out: Relative viability): 15.4%
- Growth inhibition ([13]; MTT, five days): significantly inhibited the growth
- inhibition at 10 µM [14]: 9%
- Increase in early and late apoptotic cells [15]: 4.2 fold
- Increase in early and late apoptotic cells [16]: 6.7 fold
- inhibition at 10 µM [17]: 0%
- inhibition at 10 µM [18]: 12%
